Measured values: ChEMBL document CHEMBL1909046, “DrugMatrix in vitro pharmacology data”

Experiments:
[1] = DRUGMATRIX: Calcium Channel Type L, Benzothiazepine radioligand binding (ligand: [3H] Diltiazem); type: cell membranes, Rattus norvegicus, Wistar, Brain, Membrane; settings: Not Active = under 50% inhibition at 10 µM
[2] = biological target: Aldo-keto reductase family 1 member B1 (Rattus norvegicus, UniProt P07943); assay: biochemical; type: tissue-based, Lens of camera-type eye;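 note: inhibition of aldose reductase enzyme activity, measured with DL-glyceraldehyde as the substrate; in other assays of this panel Not Active means under 50% inhibition at 10 µM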
[3] = biological target: T1, C-X-C chemokine receptor type 1 (Homo sapiens, UniProt P25024); note: in other assays of this panel Not Active means under 50% inhibition at 10 µM
T1 sequence (P25024 whole entry): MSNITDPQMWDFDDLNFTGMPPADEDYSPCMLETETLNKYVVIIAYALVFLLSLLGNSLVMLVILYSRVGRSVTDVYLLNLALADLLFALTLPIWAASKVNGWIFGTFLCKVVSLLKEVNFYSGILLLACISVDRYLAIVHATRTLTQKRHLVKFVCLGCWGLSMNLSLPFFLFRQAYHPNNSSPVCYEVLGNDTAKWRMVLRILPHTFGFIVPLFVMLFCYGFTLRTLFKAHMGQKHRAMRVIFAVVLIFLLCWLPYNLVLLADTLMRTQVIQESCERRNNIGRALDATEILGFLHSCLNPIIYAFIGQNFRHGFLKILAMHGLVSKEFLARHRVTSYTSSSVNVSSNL

[4] = biological target: T2, B2 bradykinin receptor (Homo sapiens, UniProt P30411); type: cell membranes, Membrane; settings: chem-1; note: in other assays of this panel Not Active means under 50% inhibition at 10 µM
T2 sequence (P30411 whole entry): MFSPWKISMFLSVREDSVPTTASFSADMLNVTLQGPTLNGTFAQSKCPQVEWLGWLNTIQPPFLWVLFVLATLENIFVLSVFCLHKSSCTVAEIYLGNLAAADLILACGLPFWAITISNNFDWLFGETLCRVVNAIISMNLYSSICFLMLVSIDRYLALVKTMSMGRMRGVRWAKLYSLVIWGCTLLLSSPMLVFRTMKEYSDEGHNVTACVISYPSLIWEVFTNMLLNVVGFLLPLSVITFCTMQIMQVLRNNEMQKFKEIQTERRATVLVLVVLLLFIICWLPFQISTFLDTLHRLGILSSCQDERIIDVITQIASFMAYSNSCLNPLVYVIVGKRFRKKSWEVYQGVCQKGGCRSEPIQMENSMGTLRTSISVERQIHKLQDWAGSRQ

[5] = DRUGMATRIX: Imidazoline I2, Central radioligand binding (ligand: [3H] Idazoxan); type: cell membranes, Rattus norvegicus, Wistar, Cerebral cortex, Membrane; settings: Not Active = under 50% inhibition at 10 µM
[6] = biological target: T3, Cytochrome P450 2A6 (Homo sapiens, UniProt P11509); settings: bti-tn-5b1-4; note: in other assays of this panel Not Active means under 50% inhibition at 10 µM
T3 sequence (P11509 whole entry): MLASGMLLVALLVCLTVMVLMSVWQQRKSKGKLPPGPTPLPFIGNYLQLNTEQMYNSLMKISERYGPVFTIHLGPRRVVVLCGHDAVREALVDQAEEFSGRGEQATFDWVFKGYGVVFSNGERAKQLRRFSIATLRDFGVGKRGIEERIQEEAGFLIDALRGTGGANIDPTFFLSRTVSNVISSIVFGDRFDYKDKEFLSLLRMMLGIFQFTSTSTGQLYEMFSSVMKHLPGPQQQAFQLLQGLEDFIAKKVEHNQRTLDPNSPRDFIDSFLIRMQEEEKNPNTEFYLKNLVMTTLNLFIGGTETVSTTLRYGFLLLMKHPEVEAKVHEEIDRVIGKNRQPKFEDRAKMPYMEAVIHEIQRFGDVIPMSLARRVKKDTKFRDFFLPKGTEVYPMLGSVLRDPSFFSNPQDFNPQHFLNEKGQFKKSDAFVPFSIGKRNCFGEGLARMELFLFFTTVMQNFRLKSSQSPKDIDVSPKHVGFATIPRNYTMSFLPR

[7] = biological target: Cytochrome P450 2C19 (Homo sapiens, UniProt P33261); settings: bti-tn-5b1-4; note: in other assays of this panel Not Active means under 50% inhibition at 10 µM
Cytochrome P450 2C19, sequence (P33261 whole entry): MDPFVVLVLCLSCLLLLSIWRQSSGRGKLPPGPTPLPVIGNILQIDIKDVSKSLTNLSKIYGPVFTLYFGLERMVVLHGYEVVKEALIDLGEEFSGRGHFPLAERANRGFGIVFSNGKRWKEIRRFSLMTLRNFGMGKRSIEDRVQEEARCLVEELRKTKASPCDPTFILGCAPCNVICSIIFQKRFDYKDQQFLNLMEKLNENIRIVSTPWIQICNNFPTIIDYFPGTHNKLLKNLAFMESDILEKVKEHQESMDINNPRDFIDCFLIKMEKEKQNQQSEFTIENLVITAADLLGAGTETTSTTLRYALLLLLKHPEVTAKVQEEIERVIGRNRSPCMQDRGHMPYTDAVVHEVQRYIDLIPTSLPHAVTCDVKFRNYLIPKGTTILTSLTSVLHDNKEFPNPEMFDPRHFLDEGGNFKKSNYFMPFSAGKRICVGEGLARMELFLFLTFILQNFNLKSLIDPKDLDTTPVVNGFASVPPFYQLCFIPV

Compound	IC50 [1]	Ki [1]	IC50 [2]	IC50 [3]	IC50 [4]	IC50 [5]	Ki [5]	IC50 [6]	Ki [6]	IC50 [7]	Ki [7]	IC50 ([1]; read-out: IC50)	Ki ([1]; read-out: Ki)	Ki [2]	Ki [3]	Ki [4]	IC50 ([2]; read-out: IC50)
COc1cc(C(=O)NS(=O)(=O)c2ccccc2C)ccc1Cc1cn(C)c2ccc(NC(=O)OC3CCCC3)cc12 [ZAFIRLUKAST]	Not Active	Not Active	Not Active	Not Active	Not Active	Not Active	Not Active	Not Active	Not Active	Not Active	Not Active						
CCCc1nn(C)c2c(=O)[nH]c(-c3cc(S(=O)(=O)N4CCN(C)CC4)ccc3OCC)nc12	Not Active	Not Active	Not Active	Not Active	Not Active	Not Active	Not Active	Not Active	Not Active	Not Active	Not Active						
CC(C)(C)NC[C@H](O)COc1nsnc1N1CCOCC1 [TIMOLOL]	Not Active	Not Active	Not Active	Not Active	Not Active	Not Active	Not Active	Not Active	Not Active	Not Active	Not Active						
O=P(O)(O)C(O)(Cc1cccnc1)P(=O)(O)O [RISEDRONIC ACID]	Not Active	Not Active	Not Active	Not Active	Not Active	Not Active	Not Active	Not Active	Not Active	Not Active	Not Active						
COc1ccc(/C=C/C(=O)Nc2ccccc2C(=O)O)cc1OC	Not Active	Not Active	Not Active	Not Active	Not Active	Not Active	Not Active	Not Active	Not Active	Not Active	Not Active						
CCOC(N)=O	Not Active	Not Active	Not Active	Not Active	Not Active	Not Active	Not Active	Not Active	Not Active	Not Active	Not Active						
Nc1ccc(S(=O)(=O)Nc2ncccn2)cc1 [SULFADIAZINE]	Not Active	Not Active	Not Active	Not Active	Not Active	Not Active	Not Active	Not Active	Not Active	Not Active	Not Active						
C[C@@H]1C[C@H]2[C@@H]3CCC4=CC(=O)C=C[C@]4(C)C3=CC[C@]2(C)[C@H]1C(=O)CN1CCN(c2cc(N3CCCC3)nc(N3CCCC3)n2)CC1 [TIRILAZAD]			Not Active	Not Active	Not Active	Not Active	Not Active	Not Active	Not Active	Not Active	Not Active	2.69 µM	2.4 µM				
COc1ncnc(NS(=O)(=O)c2ccc(N)cc2)c1OC [SULFADOXINE]	Not Active	Not Active	Not Active	Not Active	Not Active	Not Active	Not Active	Not Active	Not Active	Not Active	Not Active						
STANNOUS FLUORIDE	Not Active	Not Active	Not Active	Not Active	Not Active	Not Active	Not Active	Not Active	Not Active	Not Active	Not Active			Not Active	Not Active	Not Active	
CC1=C(CC(=O)O)c2cc(F)ccc2/C1=C\c1ccc(S(C)(=O)=O)cc1 [EXISULIND]	Not Active	Not Active		Not Active	Not Active	Not Active	Not Active	Not Active	Not Active	Not Active	Not Active						0.269 µM
NC[C@H]1O[C@H](O[C@H]2[C@H](O)[C@@H](O[C@H]3O[C@H](CO)[C@@H](O)[C@H](N)[C@H]3O)[C@H](N)C[C@@H]2N)[C@H](N)C[C@@H]1O [TOBRAMYCIN]	Not Active	Not Active	Not Active	Not Active	Not Active	Not Active	Not Active	Not Active	Not Active	Not Active	Not Active						
O=C(O)C(Cl)(Cl)Cl [TRICHLOROACETIC ACID]	Not Active	Not Active	Not Active	Not Active	Not Active	Not Active	Not Active	Not Active	Not Active	Not Active	Not Active						
